Data as given in US8802597B2, “Herbicidal pyrimidines” (E I du Pont de Nemours and Company, priority 2003, dated 2014).

Columns and labels:
Type in all cases: in vivo
[1] = tested on: canarygrass (Phalaris minor); experiment: Test C postemergence; conditions: for Plant response rating, Canarygrass: scale 0 to 100
How it was run: (§1)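 We sprayed seeded pots preemergence and 2–18 cm seedlings postemergence with test chemicals in a non-phytotoxic solvent mixture including surfactant. Greenhouse plants were visually compared with untreated controls at 12 to 14 days and scored 0 (no effect) to 100 (complete control).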

[2] = tested on: wild oat (Avena fatua); experiment: Test C postemergence; conditions: for Plant response rating, Oat, Wild: scale 0 to 100
How it was run: as §1

[3] = tested on: wheat (Triticum aestivum); experiment: Test C postemergence; conditions: for Plant response rating, Wheat: scale 0 to 100
How it was run: as §1

[4] = tested on: blackgrass (Alopecurus myosuroides); experiment: Test C postemergence; conditions: for Plant response rating, Blackgrass: scale 0 to 100
How it was run: as §1

[5] = tested on: winter barley (Hordeum vulgare); experiment: Test C postemergence; conditions: for Plant response rating, Barley: scale 0 to 100
How it was run: as §1

[6] = tested on: downy brome (Bromus tectorum); experiment: Test C postemergence; conditions: for Plant response rating, Bromegrass, Downy: scale 0 to 100
How it was run: as §1

[7] = tested on: Italian ryegrass (Lolium multiflorum); experiment: Test C postemergence; conditions: for Plant response rating, Ryegrass, Italian: scale 0 to 100
How it was run: as §1

[8] = tested on: windgrass (Apera spica-venti); experiment: Test C postemergence; conditions: for Plant response rating, Windgrass: scale 0 to 100
How it was run: as §1

[9] = tested on: green foxtail (Setaria viridis); experiment: Test C postemergence; conditions: for Plant response rating, Foxtail, Green: scale 0 to 100
How it was run: as §1

[10] = tested on: giant foxtail (Setaria faberi); experiment: Test A pre/postemergence
How it was run: (§2)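 After planting in loam and sand, species received test chemical as preemergence soil spray; postemergence spray went on 2–10 cm plants at 1–2 leaves at the same time. Evaluation: visual injury, ~10 d, 0 no effect to 100 complete control.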

[11] = tested on: morningglory (Ipomoea spp.); experiment: Test A pre/postemergence
How it was run: as §2

[12] = tested on: velvetleaf (Abutilon theophrasti); experiment: Test A pre/postemergence
How it was run: as §2

[13] = tested on: redroot pigweed (Amaranthus retroflexus); experiment: Test A pre/postemergence
How it was run: as §2

[14] = 62 g ai/ha, scale 0 to 100 (0 no effect, 100 complete control)
[15] = 125 g ai/ha, scale 0 to 100 (0 no effect, 100 complete control)
[16] = Postemergence, 125 g ai/ha, 0 to 100 scale (0 no effect, 100 complete control)
[17] = Postemergence, 500 g ai/ha, 0 to 100 scale (0 no effect, 100 complete control)
[18] = Preemergence, 125 g ai/ha, 0 to 100 scale where 0 is no effect and 100 is complete control, approximately ten days
[19] = Preemergence, 500 g ai/ha, 0 to 100 scale where 0 is no effect and 100 is complete control, approximately ten days

SMILES: CNN=Cc1nc(C2CC2)nc(N)c1Br [Compound 49]
- Canarygrass plant response rating [1, 14]: 0
- Canarygrass plant response rating [1, 15]: 20
- Plant response rating, Canarygrass ([1]; 250 g ai/ha): 30
- Plant response rating, Canarygrass ([1]; 500 g ai/ha): 40
- Oat, Wild plant response rating [2, 14]: 30
- Oat, Wild plant response rating [2, 15]: 40
- Plant response rating, Oat, Wild ([2]; 250 g ai/ha): 40
- Plant response rating, Oat, Wild ([2]; 500 g ai/ha): 60
- Wheat plant response rating [3, 14]: 20
- Wheat plant response rating [3, 15]: 40
- Plant response rating, Wheat ([3]; 250 g ai/ha): 50
- Plant response rating, Wheat ([3]; 500 g ai/ha): 60
- Blackgrass plant response rating [4, 14]: 40
- Blackgrass plant response rating [4, 15]: 40
- Plant response rating, Blackgrass ([4]; 250 g ai/ha): 50
- Plant response rating, Blackgrass ([4]; 500 g ai/ha): 60
- Barley plant response rating [5, 14]: 0
- Barley plant response rating [5, 15]: 20
- Plant response rating, Barley ([5]; 250 g ai/ha): 30
- Plant response rating, Barley ([5]; 500 g ai/ha): 40
- Bromegrass, Downy plant response rating [6, 14]: 0
- Bromegrass, Downy plant response rating [6, 15]: 0
- Plant response rating, Bromegrass, Downy ([6]; 250 g ai/ha): 0
- Plant response rating, Bromegrass, Downy ([6]; 500 g ai/ha): 30
- Ryegrass, Italian plant response rating [7, 14]: 30
- Ryegrass, Italian plant response rating [7, 15]: 30
- Plant response rating, Ryegrass, Italian ([7]; 250 g ai/ha): 50
- Plant response rating, Ryegrass, Italian ([7]; 500 g ai/ha): 50
- Windgrass plant response rating [8, 14]: 40
- Windgrass plant response rating [8, 15]: 40
- Plant response rating, Windgrass ([8]; 250 g ai/ha): 60
- Plant response rating, Windgrass ([8]; 500 g ai/ha): 60
- Foxtail, Green plant response rating [9, 14]: 0
- Foxtail, Green plant response rating [9, 15]: 20
- Plant response rating, Foxtail, Green ([9]; 250 g ai/ha): 50
- Plant response rating, Foxtail, Green ([9]; 500 g ai/ha): 60

SMILES: COC(=O)c1nc(C(C)C)nc(N)c1Br [Compound 3]
- Plant response rating (scale of 0 to 100), Canarygrass ([1]; 31 g ai/ha): 10
- Plant response rating, Canarygrass ([1]; 125 g ai/ha): 10
- Plant response rating, Canarygrass ([1]; 250 g ai/ha): 10
- pest or weed control at 62 g/ha ([1]; Phalaris minor, post-emergence, 62 g ai/ha, scale 0 to 100 (0 no effect, 100 complete control), read-out: Canarygrass plant response rating): 10%
- Plant response rating (scale of 0 to 100), Oat, Wild ([2]; 31 g ai/ha): 30
- Plant response rating, Oat, Wild ([2]; 250 g ai/ha): 40
- pest or weed control at 62 g/ha ([2]; Avena fatua, post-emergence, 62 g ai/ha, scale 0 to 100 (0 no effect, 100 complete control), read-out: Oat, Wild plant response rating): 30%
- pest or weed control at 125 g/ha ([2]; Avena fatua, post-emergence, 125 g ai/ha, scale 0 to 100 (0 no effect, 100 complete control), read-out: Oat, Wild plant response rating): 40%
- Plant response rating (scale of 0 to 100), Wheat ([3]; 31 g ai/ha): 0
- Plant response rating, Wheat ([3]; 250 g ai/ha): 10
- plant injury at 62 g/ha ([3]; Triticum aestivum, post-emergence, 62 g ai/ha, scale 0 to 100 (0 no effect, 100 complete control), read-out: Wheat plant response rating): 0%
- plant injury at 125 g/ha ([3]; Triticum aestivum, post-emergence, 125 g ai/ha, scale 0 to 100 (0 no effect, 100 complete control), read-out: Wheat plant response rating): 0%
- Plant response rating (scale of 0 to 100), Blackgrass ([4]; 31 g ai/ha): 0
- Plant response rating, Blackgrass ([4]; 125 g ai/ha): 0
- Plant response rating, Blackgrass ([4]; 250 g ai/ha): 0
- pest or weed control at 62 g/ha ([4]; Alopecurus myosuroides, post-emergence, 62 g ai/ha, scale 0 to 100 (0 no effect, 100 complete control), read-out: Blackgrass plant response rating): 0%
- Plant response rating (scale of 0 to 100), Barley ([5]; 31 g ai/ha): 0
- Plant response rating, Barley ([5]; 125 g ai/ha): 0
- Plant response rating, Barley ([5]; 250 g ai/ha): 30
- plant injury at 62 g/ha ([5]; Hordeum vulgare, post-emergence, 62 g ai/ha, scale 0 to 100 (0 no effect, 100 complete control), read-out: Barley plant response rating): 0%
- Plant response rating (scale of 0 to 100), Bromegrass, Downy ([6]; 31 g ai/ha): 20
- Plant response rating, Bromegrass, Downy ([6]; 125 g ai/ha): 20
- Plant response rating, Bromegrass, Downy ([6]; 250 g ai/ha): 20
- pest or weed control at 62 g/ha ([6]; Bromus tectorum, post-emergence, 62 g ai/ha, scale 0 to 100 (0 no effect, 100 complete control), read-out: Bromegrass, Downy plant response rating): 20%
- Plant response rating (scale of 0 to 100), Ryegrass, Italian ([7]; 31 g ai/ha): 35
- Plant response rating, Ryegrass, Italian ([7]; 250 g ai/ha): 35
- pest or weed control at 62 g/ha ([7]; Lolium multiflorum, post-emergence, 62 g ai/ha, scale 0 to 100 (0 no effect, 100 complete control), read-out: Ryegrass, Italian plant response rating): 35%
- pest or weed control at 125 g/ha ([7]; Lolium multiflorum, post-emergence, 125 g ai/ha, scale 0 to 100 (0 no effect, 100 complete control), read-out: Ryegrass, Italian plant response rating): 35%
- Plant response rating (scale of 0 to 100), Windgrass ([8]; 31 g ai/ha): 10
- Plant response rating, Windgrass ([8]; 250 g ai/ha): 30
- pest or weed control at 62 g/ha ([8]; Apera spica-venti, post-emergence, 62 g ai/ha, scale 0 to 100 (0 no effect, 100 complete control), read-out: Windgrass plant response rating): 30%
- pest or weed control at 125 g/ha ([8]; Apera spica-venti, post-emergence, 125 g ai/ha, scale 0 to 100 (0 no effect, 100 complete control), read-out: Windgrass plant response rating): 30%
- Plant response rating (scale of 0 to 100), Foxtail, Green ([9]; 31 g ai/ha): 20
- Plant response rating, Foxtail, Green ([9]; 250 g ai/ha): 35
- pest or weed control at 62 g/ha ([9]; Setaria viridis, post-emergence, 62 g ai/ha, scale 0 to 100 (0 no effect, 100 complete control), read-out: Foxtail, Green plant response rating): 30%
- pest or weed control at 125 g/ha ([9]; Setaria viridis, post-emergence, 125 g ai/ha, scale 0 to 100 (0 no effect, 100 complete control), read-out: Foxtail, Green plant response rating): 35%

SMILES: Nc1nc(C2CC2)nc(C(=O)O)c1Cl [Compound 135, 6-amino-5-chloro-2-cyclopropyl-4-pyrimidinecarboxylic acid]
- Plant response rating, Foxtail, Giant [10, 16]: 75
- Plant response rating, Foxtail, Giant [10, 17]: 80
- Plant response rating, Foxtail, Giant [10, 18]: 30
- Plant response rating, Foxtail, Giant [10, 19]: 85
- Plant response rating, Morningglory [11, 16]: 90
- Plant response rating, Morningglory [11, 17]: 100
- Plant response rating, Morningglory [11, 18]: 95
- Plant response rating, Morningglory [11, 19]: 100
- Plant response rating, Velvetleaf [12, 16]: 85
- Plant response rating, Velvetleaf [12, 17]: 100
- Plant response rating, Velvetleaf [12, 18]: 80
- Plant response rating, Velvetleaf [12, 19]: 100
- Plant response rating, Pigweed [13, 16]: 90
- Plant response rating, Pigweed [13, 17]: 95
- Plant response rating, Pigweed [13, 18]: 85
- Plant response rating, Pigweed [13, 19]: 100

SMILES: CCOC(=O)c1nc(-c2ccc(I)cc2)nc(N)c1Cl [Compound 133]
- Plant response rating, Foxtail, Giant [10, 16]: 15
- Plant response rating, Foxtail, Giant [10, 17]: 60
- Plant response rating, Foxtail, Giant [10, 18]: 0
- Plant response rating, Foxtail, Giant [10, 19]: 30
- Plant response rating, Morningglory [11, 16]: 70
- Plant response rating, Morningglory [11, 17]: 85
- Plant response rating, Morningglory [11, 18]: 0
- Plant response rating, Morningglory [11, 19]: 35
- Plant response rating, Velvetleaf [12, 16]: 80
- Plant response rating, Velvetleaf [12, 17]: 85
- Plant response rating, Velvetleaf [12, 18]: 10
- Plant response rating, Velvetleaf [12, 19]: 30
- Plant response rating, Pigweed [13, 16]: 80
- Plant response rating, Pigweed [13, 17]: 90
- Plant response rating, Pigweed [13, 18]: 10
- Plant response rating, Pigweed [13, 19]: 65
